Measurements: patent publication US11408038B2, “N-cadherin and FGFR1 and/or FGFR4 for use in predicting the response of patients to a lung cancer treatment and method and kit based on said use” (FUNDACIÓN DE INVESTIGACIÓN HOSPITAL 12 DE OCTUBRE, priority 2017, dated 2022)

What was measured:
H520 cell line = assay: Cell proliferation (growth curve) with FGFR inhibitors, H520; type: cell-based; details: H520, endogenous FGFR1, FGFR4 and high N-cadherin; 0.5 μM or 1 μM
Experimental: (§1) 3,500 cells were seeded per well in 12-well plates. At 24 hours (day 0) the cells of the first point of the curve were fixed, and every 24-48 hours a new point of the curve was fixed and the medium of the rest was changed. The fixed plates were preserved with the cells in PBS at 4° C. until all the points of the curve were fixed. The plates were then stained with crystal violet for 20 minutes, washed and allowed to dry. Once dry, 20% acetic acid was added to each well to dilute the crystal violet, and the absorbance at 595 nm was measured on a VICTOR optical reading device (PerkinElmer). All absorbances were standardised in relation to the absorbance of day 0 of each experimental condition. Finally, this standardised value (growth relative to day 0 on the Y-axis) was plotted against time (days, X-axis).
(§2) To verify whether N-cadherin expression is decisive in the determination of the efficacy of FGFR inhibition in lung cancer treatment, the efficacy of two selective FGFR inhibitors, in terms of growth inhibition, was tested. For this purpose, cell lines with high endogenous expression of FGFR1 and/or FGFR4 and low expression of N-cadherin (A549 and H460), or with high endogenous expression of FGFR1 and/or FGFR4 and high expression of N-cadherin (H520 and H226) were selected. […]

H226 cell line = assay: Cell proliferation (growth curve) with FGFR inhibitors, H226; type: cell-based; details: H226, endogenous FGFR1 and high N-cadherin; 0.5 μM or 1 μM
Experimental: as §1, §2

A549 cell line = assay: Cell proliferation (growth curve) with FGFR inhibitors, A549; type: cell-based; details: A549, endogenous FGFR1 and FGFR4, low N-cadherin; 0.5 μM or 1 μM
Experimental: as §1, §2

H460 cell line = assay: Cell proliferation (growth curve) with FGFR inhibitors, H460; type: cell-based; details: H460, endogenous FGFR1, low N-cadherin; 0.5 μM or 1 μM
Experimental: as §1, §2

[1] = tested on: TP60 adenocarcinoma PDX (low N-cadherin); assay: PDX treatment, tumour growth, model TP60; type: in vivo, mice; details: 7.5 mg/kg/day oral, Monday to Friday
Experimental: (§3) Tumours from patients with non-small cell lung cancer, covered with Matrigel (BD #356234) are implanted in the flank of immunocompromised nude mice of 5-6 weeks of age, under anaesthesia by isofluorane inhalation and under analgesia by buprenorphine. To perform the implant, a small cut is made in the flank of the mouse under anaesthesia and analgesia and the tumour fragment is inserted, about 100-150 mm^3 in volume.
(§4) The size of the tumours generated by the xenografts was measured weekly with a measuring gauge. The shortest and longest length of each tumour was measured and the tumour volume was calculated with the formula: 0.5×(longest dimension)×(shortest dimension)^2.
(§5) For this purpose, the model of interest was implanted in 4-6 mice per treatment group as stated above, and the growth of the tumours generated was monitored. […]
(§6) The growth of the tumours is shown in graphs of tumour growth against time, where each measurement of tumour volume is relativised with the initial measurement after commencing the treatment, and the median and mean error are shown for each treatment group. The variation in tumour volume is represented with bar graphs which show the increase (or decrease), expressed as a percentage, of the volume of each tumour with regard to the initial volume in each treatment group

[2] = tested on: TP13 epidermoid carcinoma PDX (low N-cadherin); assay: PDX treatment, tumour growth, model TP13; type: in vivo, mice; details: 7.5 mg/kg/day oral, Monday to Friday
Experimental: as §3, §4, §5, §6

[3] = tested on: TP91 adenocarcinoma PDX (high N-cadherin); assay: PDX treatment, tumour growth, model TP91; type: in vivo, mice; details: 7.5 mg/kg/day oral
Experimental: as §3, §4, §5, §6

[4] = tested on: TP114 epidermoid carcinoma PDX (high N-cadherin); assay: PDX treatment, tumour growth, model TP114; type: in vivo, mice; details: 7.5 mg/kg/day oral
Experimental: as §3, §4, §5, §6

[5] = tested on: TP96 epidermoid carcinoma PDX (high FGFR1, FGFR4 and N-cadherin)
Experimental: as §3, §4
For this purpose, the model of interest was implanted in 4-6 mice per treatment group as stated above, and the growth of the tumours generated was monitored. […] Once the groups were established, the treatments were commenced, lasting between 3 and 5 weeks, depending on the growth rate of each model and on the drug or drugs employed.
The concentration of AZD4547 employed was 7.5 mg/kg/day, administered from Monday to Friday. The route of administration of the drug was oral. At the end of the treatment, the mice were sacrificed and the tumours processed and stored as stated above.
as §6

[6] = tested on: FGFR-related signalling pathways; assay: Western blot of FGFR-related signalling pathways in treated PDX TP60; type: in vivo, mice; details: TP60 tumours, low N-cadherin
Experimental: (§7) The total proteins of the tumours from xenografts were obtained by adding the lysis buffer to the previously pulverized tissue fragment in a mortar pre-cooled with liquid nitrogen, to avoid thawing the fragment; it was then incubated on ice for 2 hours, stirring every 10 minutes, and the volume was collected in 2 mL tubes that were centrifuged at 15,000×g for 10 minutes at 4° C. to eliminate the remnants of undissolved tissue, and the supernatant was stored at −80° C. The extraction buffer and the quantification method used were the same as in the case of protein extraction from cell lines.
Protein immunodetection was performed according to a standard protocol on PDVF membranes (GE Healthcare). The proteins were separated on SDS polyacrylamide gels using a 1X Tris HCl 0.13 M electrophoresis buffer, 0.95 M glycine, 0.5% SDS, and were transferred to PDVF membranes, using a Trans-Blot Turbo kit (BioRad). The transfer was performed at 400 mA for 3 hours in transfer buffer (0.025 M TrisHCl, 0.2 M glycine, 20% methanol). The membranes were blocked for 1 hour under stirring with the blocking buffer (TBS, 0.1% Tween20 and 1% BSA). […] The detection was performed using a chemiluminescent reaction (Clarity ECL, Biorad) and visualization using luminescence detection equipment (ChemiDoc, BioRad). […]

[7] = tested on: FGFR-related signalling pathways (pSTAT3, pAKT, p-p42/p44); assay: Western blot of FGFR-related signalling pathways in treated PDX TP91; type: in vivo, mice; details: TP91 tumours, high N-cadherin
Experimental: as §7
Protein immunodetection was performed according to a standard protocol on PDVF membranes (GE Healthcare). The proteins were separated on SDS polyacrylamide gels using a 1X Tris HCl 0.13 M electrophoresis buffer, 0.95 M glycine, 0.5% SDS, and were transferred to PDVF membranes, using a Trans-Blot Turbo kit (BioRad). The transfer was performed at 400 mA for 3 hours in transfer buffer (0.025 M TrisHCl, 0.2 M glycine, 20% methanol). The membranes were blocked for 1 hour under stirring with the blocking buffer (TBS, 0.1% Tween20 and 1% BSA). Subsequently, the membranes were incubated with the appropriate dilution of primary antibody for 16 hours at 4° C. After this incubation, the membranes were washed with washing buffer (TBS 0.1% Tween-20) and incubated with a 1:5,000 dilution of the appropriate peroxidase-conjugated secondary antibody, for one hour at ambient temperature. The detection was performed using a chemiluminescent reaction (Clarity ECL, Biorad) and visualization using luminescence detection equipment (ChemiDoc, BioRad).
The route of administration of the drug was oral.

lung cancer cell lines = assay: In vitro experiments with the two FGFR inhibitors, growth inhibition overall; type: cell-based; details: BGJ398 versus AZD4547
Experimental: To verify whether N-cadherin expression is decisive in the determination of the efficacy of FGFR inhibition in lung cancer treatment, the efficacy of two selective FGFR inhibitors, in terms of growth inhibition, was tested. For this purpose, cell lines with high endogenous expression of FGFR1 and/or FGFR4 and low expression of N-cadherin (A549 and H460), or with high endogenous expression of FGFR1 and/or FGFR4 and high expression of N-cadherin (H520 and H226) were selected. In these lines, an analysis was performed on the effect on cell proliferation of two selective FGFR inhibitors: BGJ398 and AZD4547 (SELLECKCHEM, Refs. S2183 and S2801 respectively) with regard to time.

[8] = tested on: mesenchymal bladder cancer cell lines; details: cited from earlier work

| Compound | effect on cell growth (relative growth with regard to time) (H520 cell line) | effect on cell growth (relative growth with regard to time) (H226 cell line) | effect on cell growth (relative growth with regard to time) (A549 cell line) | effect on cell growth (relative growth with regard to time) (H460 cell line) | effect on tumour growth [1] | effect on tumour growth [2] | average reduction in volume with regard to the control condition ([3]; TP91, high N-cadherin, Monday to Friday) [%] | complete tumour regression, fraction of the tumours treated ([3]; TP91) | average reduction in volume with regard to the control condition ([4]; TP114, high N-cadherin, Monday to Friday) [%] | complete tumour regression, fraction of the tumours treated ([4]; TP114) | average reduction in volume with regard to the control condition ([5]; TP96, high FGFR1, FGFR4 and N-cadherin, 7.5 mg/kg/day oral, Monday to Friday) [%] | complete tumour regression, fraction of the tumours treated ([5]; TP96, 7.5 mg/kg/day oral) | response to the treatment ([5]; TP96, partial response = average reduction in tumour volume of 50% or greater vs volume at commencement of treatment) | activation of the FGFR-related signalling pathways studied [6] | levels of pAKT [7] | levels of pSTAT3 [7] | p-p42/p44 activation [7] | efficacy in the in vitro experiments, compared between the two inhibitors (lung cancer cell lines) | responsiveness of mesenchymal versus epithelial bladder cancer cell lines [8] |
| --- | --- | --- | --- | --- | --- | --- | --- | --- | --- | --- | --- | --- | --- | --- | --- | --- | --- | --- | --- |
| AZD4547 | reduce the growth | reduce the growth | do not exert a significant effect | do not exert a significant effect | no effect | no effect | 14.4 | ⅕ | 25.5 | ⅖ | 1.4 | ⅖ | partial response | does not alter the activation | reduction | reduction | modest reduction | greatest efficacy | – |
| CCN1CCN(c2ccc(Nc3cc(N(C)C(=O)Nc4c(Cl)c(OC)cc(OC)c4Cl)ncn3)cc2)CC1 [BGJ398] | reduce the growth | reduce the growth | do not exert a significant effect | do not exert a significant effect | – | – | – | – | – | – | – | – | – | – | – | – | – | – | – |
| CN1CCN(c2ccc3nc(-c4c(N)c5c(F)cccc5[nH]c4=O)[nH]c3c2)CC1 [TI-258] | – | – | – | – | – | – | – | – | – | – | – | – | – | – | – | – | – | – | more responsive |
